Assay results as given in patent US7183099B2, “Inhibitors of autoinducer transporters” (Princeton University, priority 2001, dated 2007).
Like-named read-outs stand apart in the source and are kept apart here.

Columns and labels:
[1] = tested on: V. harveyi luxN, luxS double mutant reporter strain; experiment: Luminescence response of V. harveyi luxN, luxS double mutant reporter; assay type: cell-based, Vibrio harveyi; conditions: culture fluids of MM30 (AI-1) and BB152 (AI-2) as sources
Procedure: Verification that the luxN, luxS Double Mutant Responds to AI-2. […] This was verified in a luminescence assay for response to V. harveyi AI-1 and AI-2. V. harveyi strain MM30 (luxS::Tn5) that is phenotypically AI-1^+, AI-2^−, and V. harveyi strain BB152 (luxM::Tn5) that is phenotypically AI-1^−, AI-2^+ were used as the sources of AI-1 and AI-2 respectively. The AI-1 and AI-2 present in culture fluids of these strains was tested for stimulation of light production of the V. harveyi luxN, luxS double mutant reporter strain. In this assay, autoinducer preparations from MM30, BB152 or sterile medium controls were added to the wells of microtiter plates, followed by the addition of the V. harveyi reporter strain. The resulting light production was monitored using a liquid scintillation counter in the chemiluminescence mode. Maximal stimulation of light production in the V. harveyi luxN, luxS reporter strain was compared to that produced by the Sensor 1^+, Sensor 2^− V. harveyi strain BB886 and the Sensor 1^−, Sensor 2^+V. harveyi strain BB170. These two V. harveyi strains are routinely used in this assay as reporters of AI-1 and AI-2 activity respectively.

Lsr ABC transporter [2] = molecular target: T1, Lsr ABC transporter (Salmonella typhimurium, UniProt Q8ZKQ1); experiment: Removal of exogenous AI-2 from S. typhimurium culture fluids; assay type: cell-based; conditions: for input AI-2 activity remaining: wild type lsrR strain
T1 construct: containing a wild type lsr operon; endogenous in cells; host or cells: S. typhimurium 14028 derivatives in a luxS null background (parent SS007, luxS::T-POP; also MET342, ΔlsrR)
Procedure: (§1) Cultures of S. typhimurium luxS null strains containing a wild type lsr operon or containing mutations inactivating lsr genes were grown to mid-exponential phase in LB at 37° C. AI-2 prepared by our in vitro method was added to the cultures, and the cultures were incubated with the AI-2 for an hour. Subsequently, the cells were removed from the culture fluid by centrifugation, and the resulting cell-free culture fluids were assayed for AI-2 activity using the V. harveyi AI-2 bioassay. This assay involves measuring the increase in light production of a V. harveyi quorum sensing reporter strain that induces bioluminescence exclusively in response to the presence of AI-2. In the present experiment, the bioassay allowed us to determine the level of AI-2 activity remaining in the culture fluids of the different S. typhimurium mutants. Since all the S. typhimurium strains we used in this experiment contained null mutations in luxS, the only AI-2 that could be present in the cell-free culture fluids came from that that we added exogenously.
(§2) Relative levels of AI-2 in cell-free culture fluids of S. typhimurium strains of interest were measured using a V. harveyi bioluminescence assay, as described previously (Bassler et al., 1993; Bassler et al., 1997). Cell-free culture fluids were prepared as described (Surette and Bassler, 1998; Surette et al., 1999). These preparations were assayed for AI-2 activity at 10% (vol/vol), using V. harveyi reporter strain BB170 (luxN::Tn5), as described (Bassler et al., 1993). AI-2 activity is reported as fold induction over background of bioluminescence. To examine the role of Lsr in the uptake of AI-2, cultures of S. typhimurium were grown overnight, diluted 1:100 into fresh LB, and grown for a total of 4 hours. During the final hour of growth, the cells were incubated with 70 μM in vitro prepared AI-2 for specified times (Schauder et al., 2001). Subsequently, the cultures were chilled on ice and cell-free culture fluids were prepared. The AI-2 remaining in these preparations was measured in the V. harveyi bioluminescence assay. Assays were performed in duplicate.

Lsr ABC transporter [3] = experiment: as above; assay type: cell-based; conditions: 1 h
Procedure: as §1, §2

[4] = tested on: ftsQ1p2p-lacZ reporter (SdiA); experiment: SdiA regulated ftsQ1p2p-lacZ reporter assay; assay type: cell-based, E. coli; conditions: 10% osmotic shock fluids containing AI-2 activity, 2 h
From the text: Analysis of the effect of autoinducer on SdiA regulated gene expression. A sequence that includes the ftsQ1p and ftsQ2p promoters (Wang et al., 1991, supra) was amplified from E. coli MG1655 chromosomal DNA using the following primers: • ftsQ1p, 5′-[…]-3′ (SEQ ID NO: 19); • ftsQ2p, 5′-[…]-3′ (SEQ ID NO: 20).
The amplified product contained both the ftsQ promoters and the first 14 codons of the ftsQ gene flanked by BamHI and Bg1II sites. The ftsQ1p2p PCR product was cloned into the BamHI site of vector pMLB1034 (Silhavy et al., Experiments with Gene Fusions, Cold Spring Harbor Press, 1984) to generate a lacZ fusion that contained the promoters, ribosome binding site, and initiation codon of ftsQ. A correctly oriented clone, pMS207, and a clone containing the ftsQ1p2p insert in the opposite orientation, pMS209, were chosen for further analysis. Both inserts were sequenced to ensure that no errors were introduced during the PCR reaction.
For ftsQ regulation in E. coli, the plasmids pMS207 and pMS209 were transformed into E. coli strain MC4100 (Silhavy et al., 1984, supra), and the transformants were grown overnight in LB containing 100 mg/L ampicillin at 30° C. with aeration. For rck regulation, S. typhimurium strains BA1105 (rck::MudJ) and BA1305 (rck::MudJ sdiA) were grown overnight in LB containing 100 mg/L kanamycin at 30° C. with aeration. […]

[5] = Stability characterisation of the signaling activity; assay type: physicochemical
[6] = wild type lsr strain (luxS null), 1 h incubation

## CC(=O)C(=O)C(O)CO (stereo not shown) [AI-2, 4,5-dihydroxy-2,3-pentanedione]
[1]
  stimulation of light production by exogenous autoinducer: stimulated to produce light
Lsr ABC transporter [2]; inactivation of lsrR, 1 h incubation
  activity gone from the culture fluids: over 99%
Lsr ABC transporter [2]; [6]
  AI-2 activity remaining (induction of the bioassay strain): 80 fold
  disappearance of AI-2 activity from the culture fluid: 92%
Lsr ABC transporter [2]; 2 min
  input AI-2 activity remaining: 97%
Lsr ABC transporter [2]; 15 min
  input AI-2 activity remaining: 85%
Lsr ABC transporter [2]; 30 min
  input AI-2 activity remaining: 82%
Lsr ABC transporter [2]; 45 min
  input AI-2 activity remaining: 75%
Lsr ABC transporter [2]; 60 min
  input AI-2 activity remaining: 6%
Lsr ABC transporter [3]; MudJ insertion mutants in lsrA, lsrC and lsrB
  elimination of AI-2 from the culture fluids: unable to eliminate AI-2 from the culture fluids
Lsr ABC transporter [3]; ΔlsrR, lsrC::MudJ double mutant
  level of AI-2 versus input: the level of AI-2 did not decrease compared to the input activity
[4]
  change in β-galactosidase level of MC4100/pMS207: this level of activity did not change under any of the conditions tested here
[5]
  heat resistance of the activity: heat resistant to about 80 but not 100 °C
  stability of the activity to acid and base: acid stable and base labile
[5]; cell-free culture supernatants and 0.4 M NaCl osmotic shock fluids, 30 °C
  time the activity is stable in cell-free fluids: at least 24 h
[5]; listed as signaling activity
  heat resistance of the activity: heat resistant to 80 but not 100 °C
  stability of the activity to acid and base: acid stabile and base labile
[5]; listed as signaling compound
  heat resistance of the activity: heat resistant to 80 °C but not 100 °C
  stability of the activity to acid and base: acid stable and base labile
